The text below walks through data of patent US20260200943A1, “COMPOUNDS FOR TREATING CANCER” (Genesis Therapeutics, Inc., priority 2022, published 2026).

Where two headings read alike, the source gives them in different places.

For data set [1] the following is noted: from C=CCNC(=O)O[C@@H]1CC[C@H](c2cc(Nc3ccc(S(=O)(=O)NCC=C)cc3F)nn2C(C)(C)C)C1; rcm bond; 20-membered ring; Grubbs Cat. M204; DCE; 1.92 mM; 25.0 °C.
For data set [2] the following is noted: from C=CCNC(=O)O[C@@H]1CC[C@H](c2cc(Nc3ccc(S(=O)(=O)NCC=C)cc3F)nn2C(C)(C)C)C1; rcm bond; Grubbs Cat. M204 (Grubbs II); DCE; 1.92 mM; 25.0 °C; 40.0 h.
For data set [3], the target named is T1, CDK2/CyclinA2 (Homo sapiens, UniProt P24941).
T1 construct: Wild-type, full length CDK2 in complex with wildtype, full length CyclinA2: Carna Cat #04-103; purchased Carna 04-103
The data set is described as follows: CDK2/CyclinA2 ChEF Assay (AQT, Table C). In kind it is biochemical. The conditions noted are these: 10xKm; for Ki: AQT ChEF, read-out: CDK2/CCNA2 AQT10xKm Ki: Average Ki; for CDK2/CCNA2 AQT10xKm Ki: CDK2/A2 Selectivity over CDK1/B1 / CDK2/CCNA2 AQT10xKm Ki: CDK2/A2 Selectivity over CDK9: AQT. As to the method: (§1) 16 nL of 1000× compound in 100% DMSO is added to a 384-well low volume, black assay plate. 12 μL of 1.3×CDK2/CyclinA2 (Wild-type, full length CDK2 in complex with wildtype, full length CyclinA2: Carna Cat #04-103 diluted in assay buffer (54 mM Hepes, 0.012% Brij-35, 10 mM MgCl2, 0.55 mM EGTA, 1% Glycerol, 0.02% BSA, and 1.2 mM DTT) is added to the plates on top of the compound and pre-incubated for 30 minutes at room temperature. Following the incubation, 4 uL of 4×Sox-chromophore (CSox) labeled peptide substrate (AQT0297, AssayQuant) & ATP diluted in assay buffer is added to the plate to initiate the reaction. The assay is incubated at room temperature for 90 min after initiation. The CSox peptide substrate is phosphorylated by CDK2/A2 upon ATP hydrolysis.
(§2) The fluorescent intensity measurement of the assay plate is read on a microplate reader once the assay is initiated and again at the completion of the assay. Phosphorylation of the CSox-based peptide substrate sensor results in an immediate increase in fluorescence. These raw fluorescence intensity values are normalized to calculate percent inhibition, which are fit to a four-parameter logistic curve and IC50 values are calculated. IC50 values are converted to Ki using substrate, KM^app values, and the Cheng-Prusoff equation.

For data set [4], the target named is T2, CDK9/CyclinT1 (Homo sapiens, UniProt P50750). Nature of the data set: CDK9/CyclinT1 Mobility Shift Assay (Caliper, Table B). The conditions noted are these: read-out: CDK9/Cyclin T1 Caliper Ki: Average Ki. Also on record: Wild-type, full length CDK9 in complex with wildtype, CyclinT1 (1-259): Biortus Cat #BP480/792/691; purchased Biortus BP480/792/691. Type of data set: biochemical. As to the method:
10 nL of 2000× compound in 100% DMSO is added to a 384-well polypropylene assay plate. 15 μL of 1.3×CDK9/T1 and 1.3× fluorescent substrate (Wild-type, full length CDK9 in complex with wildtype, CyclinT1 (1-259): Biortus Cat #BP480/792/691 and FL-Peptide 34: PerkinElmer Cat #760643) diluted in kinase buffer (50 mM Hepes, 0.01% Brij-35, 10 mM MgCl2, 1 mM EGTA, 0.05% BSA, and 2 mM DTT) is added to the plates on top of the compound, mixed, and pre-incubated for 30 minutes at room temperature. The fluorescently labeled peptide substrate is phosphorylated by CDK9/T1 upon ATP hydrolysis. Following the incubation, 5 μL of 4×ATP diluted in kinase buffer is added to the plate to initiate the reaction. Following the 30-minute incubation, the reaction is stopped by adding 75 μL of stopping buffer containing 0.5 M EDTA.
The assay plate is then read on a Lab Chip EZ Reader which separates the fluorescently labeled substrate and product peptides through a mobility difference. The phosphorylation of the substrate imparts a negative charge, which allows differences in separation as both are pulled through the microfluidic chip. The ratio of substrate and product values are used to generate percent conversion. These raw percent conversion values are normalized to calculate percent inhibition, which are fit to a four-parameter logistic curve and IC50 values are calculated. IC50 values are converted to Ki using substrate, Kmapp values, and the Cheng-Prusoff equation.

Data set [5] addresses T2, CDK9/CyclinT1. The data set is described as follows: CDK9/CyclinT1 ChEF Assay (AQT, Table C). Type of data set: biochemical. Also noted: Wild-type, full length CDK9 in complex with wildtype, CyclinT1 (1-259): Biortus Cat #BP480/792/691; purchased Biortus BP480/792/691. To be noted: 10XKm. As to the method:
16 nL of 1000× compound in 100% DMSO is added to a 384-well low volume, black assay plate. 12 μL of 1.3×CDK9/CyclinT1 (Wild-type, full length CDK9 in complex with wildtype, CyclinT1 (1-259): Biortus Cat #BP480/792/691) diluted in assay buffer (54 mM Hepes, 0.012% Brij-35, 10 mM MgCl2, 0.55 mM EGTA, 1% Glycerol, 0.02% BSA, and 1.2 mM DTT) is added to the plates on top of the compound and pre-incubated for 30 minutes at room temperature. Following the incubation, 4 μL of 4×Sox-chromophore (CSox) labeled peptide substrate (AQT0449, AssayQuant) & ATP diluted in assay buffer is added to the plate to initiate the reaction. The assay is incubated at room temperature for 180 min after initiation. The CSox peptide substrate is phosphorylated by CDK9/T1 upon ATP hydrolysis.
as §2

For data set [6], the target named is T3, CDK1/CyclinB1 (Homo sapiens, UniProt P06493).
T3 construct: Wild-type, full length CDK1 in complex with wildtype, full length CyclinB1: Carna Cat #04-102; purchased Carna 04-102
T3 sequence (P06493 whole entry): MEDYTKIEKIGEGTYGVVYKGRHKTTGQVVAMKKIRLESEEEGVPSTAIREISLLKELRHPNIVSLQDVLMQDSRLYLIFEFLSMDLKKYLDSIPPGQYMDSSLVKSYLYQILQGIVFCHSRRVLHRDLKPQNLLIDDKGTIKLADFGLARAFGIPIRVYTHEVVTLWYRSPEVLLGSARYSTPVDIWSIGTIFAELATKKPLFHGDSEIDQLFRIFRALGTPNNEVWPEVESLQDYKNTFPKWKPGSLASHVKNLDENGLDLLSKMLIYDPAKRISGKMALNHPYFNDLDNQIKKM
T3 sequence (P14635 whole entry partner): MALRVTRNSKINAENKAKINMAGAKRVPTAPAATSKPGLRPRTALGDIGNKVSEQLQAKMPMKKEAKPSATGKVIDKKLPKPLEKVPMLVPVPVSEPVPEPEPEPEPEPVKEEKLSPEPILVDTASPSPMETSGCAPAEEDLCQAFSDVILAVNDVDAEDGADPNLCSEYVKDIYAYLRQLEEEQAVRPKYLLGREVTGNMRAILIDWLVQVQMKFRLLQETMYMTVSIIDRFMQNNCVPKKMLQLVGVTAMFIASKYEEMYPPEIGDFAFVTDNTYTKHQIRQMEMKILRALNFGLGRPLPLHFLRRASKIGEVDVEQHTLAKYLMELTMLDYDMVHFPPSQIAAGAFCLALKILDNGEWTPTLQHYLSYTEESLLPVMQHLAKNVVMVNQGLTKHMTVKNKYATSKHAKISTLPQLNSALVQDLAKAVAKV
The data set is described as follows: CDK1/CyclinB1 ChEF Assay (AQT, Table C). Type of data set: biochemical. The conditions noted are these: 10xKm, read-out: CDK1/CCNB1 AQT AQT10xKm Ki: Average Ki. As to the method: as §1, with “1.3×CDK1/CyclinB1” for “1.3×CDK2/CyclinA2”, “CDK1” for “CDK2”, “CyclinB1:” for “CyclinA2:”, “#04-102)” for “#04-103”, “120” for “90”, “CDK1/B1” for “CDK2/A2”
as §2

T2 sequence (P50750 whole entry): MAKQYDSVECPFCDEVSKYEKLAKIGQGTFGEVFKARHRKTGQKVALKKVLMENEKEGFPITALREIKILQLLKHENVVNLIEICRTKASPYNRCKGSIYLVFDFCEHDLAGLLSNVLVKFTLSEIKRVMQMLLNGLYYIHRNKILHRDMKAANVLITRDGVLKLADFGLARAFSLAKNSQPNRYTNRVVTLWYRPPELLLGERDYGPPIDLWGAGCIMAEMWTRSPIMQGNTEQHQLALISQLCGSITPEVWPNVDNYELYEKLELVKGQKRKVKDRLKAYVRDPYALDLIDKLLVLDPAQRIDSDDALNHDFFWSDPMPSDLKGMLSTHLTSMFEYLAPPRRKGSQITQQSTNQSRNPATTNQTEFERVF
T2 sequence (O60563 1-259 partner limits assumed): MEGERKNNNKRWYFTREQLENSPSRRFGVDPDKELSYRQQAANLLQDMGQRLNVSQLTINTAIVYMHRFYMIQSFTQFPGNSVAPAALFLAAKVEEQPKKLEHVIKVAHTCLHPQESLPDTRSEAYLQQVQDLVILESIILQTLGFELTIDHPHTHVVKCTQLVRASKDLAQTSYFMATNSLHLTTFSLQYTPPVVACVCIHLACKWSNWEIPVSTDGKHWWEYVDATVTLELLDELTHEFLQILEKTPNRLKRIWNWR

Consider `CC(C)(C)OC(=O)NCCCCCNc1cc(Nc2ncc(C3CCC(OC(=O)Oc4ccc([N+](=O)[O-])cc4)C3)cn2)ccc1S(=O)(=O)NC(=O)OC(C)(C)C` (stereo not shown), for which the ring closure, isolated yield (the molecule shown is the open-chain precursor, other bond, 20-membered ring, HCOOH, then DIEA, DMF, 76.7 mM, 50.0 °C, 2 steps) was 39.5%.

For the setting “the molecule shown is the open-chain precursor, other bond, 21-membered ring, TFA, then DIPEA, DCE, 5.25 mM, 25.0 °C, 2 steps”, `CC(C)(C)OC(=O)NCCOCCNS(=O)(=O)c1ccc(Nc2cc([C@H]3CC[C@@H](OC(=O)Oc4ccc([N+](=O)[O-])cc4)C3)n(C(C)(C)C)n2)c(F)c1` returned a ring closure, isolated yield of 62.3%.

`CC(C)(C)n1nc2cc1[C@H]1CC[C@H](C1)OC(=O)NCC=CCNS(=O)(=O)c1ccc(c(F)c1)N2` registered a ring closure, yield after HPLC in data set [1] of 29%. Moreover, in data set [2], the ring closure, yield of all isomers came out at 29%.

Compound `Cn1ncc2c1C(=O)NCCCCCOc1nc(ncc1Cl)NC1CCN(CC1)S2(=O)=O` came in with a ring closure, isolated yield (from Cn1ncc(S(=O)(=O)N2CCC(N)CC2)c1C(=O)NCCCCCOc1nc(Cl)ncc1Br, snar bond, 19-membered ring, K2CO3, DMSO, 6.02 mM, 110.0 °C) of 33%.

Consider `NCCCCCOc1cc(Nc2ncc(C3CCC(OC(=O)Oc4ccc([N+](=O)[O-])cc4)C3)cn2)ccc1S(N)(=O)=O` (stereo not shown), for which the ring closure, isolated yield (the molecule shown is the open-chain precursor, other bond, 20-membered ring, DIEA, DMF, 41.5 mM, 50.0 °C) is 11.1%.

With `NS(=O)(=O)c1ccc2cc1OCCCCCNC(=O)O[C@H]1CC[C@H](C1)c1cnc(nc1)N2` (stereo in doubt) [Compound 103, 12-oxo-5,13-dioxa-3,11-diaza-2(5,2)-pyrimidina-4(1,3)-benzena-1(1,3)-cyclopentanacyclotridecaphane-44-sulfonamide], the Ki in data set [3] was less than 1 nM; in data set [4], no less than 100 nM; in data set [5], 1 to 25 nM; in data set [6] it was 1 to 25 nM. Also, the “CDK2/CCNA2 AQT10xKm Ki: CDK2/A2 Selectivity over CDK1/B1” value in data set [3] is listed as “A (A>10)”. In addition, the “CDK2/CCNA2 AQT10xKm Ki: CDK2/A2 Selectivity over CDK9” value in data set [3] is given as “A (A>10)”.

For `NS(=O)(=O)c1ccc2cc1OCCCCCNC(=O)O[C@H]1CC[C@H](C1)c1cnc(nc1)N2` (stereo in doubt) [Compound 104, rel-(2R,5S)-7-oxo-6,14-dioxa-8,20,22,25-tetraazatetracyclo[19.2.2.1^{2,5}.1^{15,19}]heptacosa-1(23),15,17,19(26),21,24-hexaene-16-sulfonamide], the Ki in data set [3] is less than 1 nM; in data set [4], no less than 100 nM; in data set [5], no less than 100 nM; in data set [6], 1 to 25 nM. Besides, in data set [3], the “CDK2/CCNA2 AQT10xKm Ki: CDK2/A2 Selectivity over CDK1/B1” value was “A (A>10)”. Also, the “CDK2/CCNA2 AQT10xKm Ki: CDK2/A2 Selectivity over CDK9” value in data set [3] is “A (A>10)”.

Take “(1^1S,1^3R,Z)-2^1H-15-oxa-5-thia-3,6,13-triaza-2(5,3)-pyrazola-4(1,4)-cyclohexana-1(1,3)-cyclopentanacyclopentadecaphan-14-one 5,5-dioxide”: under “other bond, 22-membered ring, TFA, then DIPEA, DCM/DCE, 4.26 mM, 25.0 °C, 2 steps”, the ring closure, isolated yield came out at 50%.
